Values quoted from earlier work in US20070166227A1, “Crowned dithiocarbamate metal complexes and methods for their use” (priority 2004, published 2007).

## O=C(O)C1CCCN1C(=S)[S-].O=C(O)C1CCCN1C(=S)[S-].[Cu+2] (centres unmarked) [Cu(ProDTC)2]
Log β1
  binding affinity for NO: log β1: 9.74
Log β2
  binding affinity for NO: log β2: 15.44
